The values that follow come from paper PMC9511493, “2-(Fluoromethoxy)-4′-(S-methanesulfonimidoyl)-1,1′-biphenyl (UCM-1306), an Orally Bioavailable Positive Allosteric Modulator of the Human Dopamine D1 Receptor for Parkinson’s Disease” (Journal of Medicinal Chemistry, 2022).

Where “and” joins values, the source holds several entries; their conditions need not be identical. Equal values may be shown once.

The target of one series is T1, human D2R (Homo sapiens, UniProt P14416).
T1 construct: expressed in transfected cells; host or cells: in-house CHO cell line
Kind of series: functional cAMP assay at recombinant human D2R in CHO cells. Format: cell-based. To be noted: 10 μM compound. As for the experimental part: Functional studies at human D1 and D2 receptors were carried out in endogenously expressed human D1R in the SK-N-MC cell line (ATCC), and recombinant human D2R stably transfected in an in-house CHO cell line. Cells were thawed and seeded into a black 96-well plate (1 × 10^4 cells/well for SK-N-MC cell line, 5 × 10^3 cells/well for CHO cell line) in Opti-MEM containing 500 μM IBMX (3-isobutyl-1-methylxanthine). Test compounds were added to the cells and incubated for 15 min at 25 °C for D1R, and for 5 min at 37 °C for D2R. After this time, dopamine was added to the corresponding wells and incubated for additional 15 min at 25 °C for D1R, and 10 min at 37 °C for D2R. Next, treated cells were lysed (for the D2R assay, cells were previously treated with 10 μM forskolin for 5 min at 37 °C) and the cAMP concentration was measured by HTRF, using a kit from Cisbio. HTRF was read in a Tecan M1000 Genius Pro reader (λexcitation = 320 nm, λemission = 620 and 665 nm, 30 flashes), and data were normalized to the dopamine maximum effect and fitted to a 4-parameter logistic equation by using Prism v2.1 software (GraphPad Inc).
For orientation: cAMP levels reflect the balance of adenylyl cyclase and phosphodiesterase activity.

The next series addresses T2, human D3R (Homo sapiens, UniProt P35462).
T2 construct: host or cells: cells supplied with the PatHunter Beta-arrestin eXpress GPCR assay kit
The experiment in a line: PatHunter beta-arrestin assay at human D3R. Format: cell-based. Conditions: 10 μM compound. On the procedure:
Functional studies at both human D3 and D4 receptors were carried out in human D3 and D4 receptors, using a PatHunter Beta-arrestin eXpress GPCR assay kit from DiscoverX. Briefly, cells were plated and maintained for 48 h at 37 °C in a 5% CO2 atmosphere in cell plating reagent provided in the kit. After this time, test compounds were added to the cells and incubated for 30 min at 37 °C. Dopamine was added to the cells and incubated for an additional 90 min at 37 °C. Cells were then treated with the working detection solution provided with the kit for 1 h and beta-arrestin translocation was measured by luminescence detection (integration time = 500 ms) in a Tecan M1000 Genius Pro reader. Data were normalized to dopamine maximum effect and fitted to a 4-parameter logistic equation using Prism v2.1 software (GraphPad Inc).

The target in the next series is T3, CYP2D6 (Homo sapiens, UniProt P10635).
T3 construct: host or cells: insect cell microsomes
The experiment in a line: cytochrome inhibition, fluorescence assay, CYP2D6. Format: in vitro ADME. As for the experimental part:
Cytochrome inhibition. The objective of this study was to screen the potential of test […]
performed using recombinant isoforms CYP1A2, CYP2C9, CYP2C19, CYP2D6, and CYP3A4, and probe substrates with fluorescent detection.
Assays were conducted in a 200 µL volume in 96-well microtiter plates (COSTAR 3915).
Addition of cofactor-buffer mixture (KH2PO4 buffer, 1.3 mM NADP, 3.3 mM MgCl2, 3.3 mM glucose -6- phosphate, and 0.4 U/mL glucose -6- phosphate dehydrogenase), supersomes control, standard inhibitors (furafyline, tranylzypromine, ketoconazole, sulfaphenazole, and quinidine from Sigma Aldrich) and test compound to the plate was carried out by a liquid handling station (Zephyr Caliper). The plate was then pre-incubated at 37 °C for 5 min, and the reaction was initiated by the addition of the pr e - warmed enzyme/substrate (E/S) mix. […]
Fluorescence per well was measured using a fluorescence plate reader (Tecan Infinite M1000 pro) and percentage of inhibition was calculated. hERG ion channel inhibition. […]

The target in the next series is T4, mouse D1R (Mus musculus, UniProt Q61616).
T4 construct: human SK-N-MC and mouse CAD neuroblastoma cell lines; endogenous in cells; host or cells: mouse CAD neuroblastoma cell line
The experiment in a line: potentiator-mode cAMP assay in mouse CAD neuroblastoma cell line. To be noted: mouse CAD neuroblastoma cells. The format is cell-based. As for the experimental part: In order to ascertain if this allosteric potentiation was due to a modulation on DA affinity, radioligand binding assays in the presence of DA IC50 (4 μM) were carried out.
Compound 26 was tested in the potentiator-mode cAMP assay at different fixed concentrations (1, 5, and 10 μM). […] Therefore, it should have negligible direct activating effects on the human D1R in the absence of the endogenous ligand.
Figure 3 (A) Concentration–response curves in human D1R for cAMP production of DA alone (black) and in the presence of different concentrations of compound 26. (B) Concentration–response curves in human D1R of DA (black), 10 μM 26 for 10 min (red), and 10 μM 26 for 10 min then washing with assay buffer (blue). (C) Concentration–response curves in mouse D1R of DA alone (black) and in the presence of 10 μM 26 (red). (D) Concentration–response curve in human D1R of compound 26 in the presence of DA EC70 concentration. (E) Concentration–response curves in human D1R of DA (black) and compound 26 (red). (F) Concentration–response curves in human D1R of DA (red), after preincubation for 1 h with 10 μM DA (black), with 10 μM 26 (green), and with both 10 μM DA and 10 μM 26 (blue).

The target of the next series is T5, human D1R (Homo sapiens, UniProt P21728).
T5 construct: endogenously expressed human D1R in the SK-N-MC cell line (ATCC); host or cells: SK-N-MC human neuroblastoma cells
The experiment in a line: potentiator-mode cAMP assay (HTRF) in SK-N-MC neuroblastoma cells endogenously expressing human D1R. Format: cell-based. Conditions: for potentiation of DA effect at different fixed concentrations: 3: 0.1–10 μM, 26: 1, 5 and 10 μM; for cAMP response in the absence of DA (agonist activity): no DA.

A further series has as its target T6, human dopamine D1R (Homo sapiens, UniProt P21728).
T6 construct: purchased Perkin Elmer
The experiment in a line: radioligand binding assay with [3H]SCH23390 at human D1R membranes. As for the experimental part:
Binding assays were carried out by using plasma membranes (12 μg/well) expressing human dopamine D1R (Perkin Elmer). […] After this time, the well content was filtered through a Millipore manifold and membranes were washed four times with assay buffer. The plate was dried and radioactivity was measured in a Microbeta Trilux liquid scintillation reader (Perkin Elmer). Non-specific binding was determined in the presence of 1 μM (+)-butaclamol. Data were normalized to the percentage of specific binding and fitted to a 4-parameter logistic equation using with Prism v2.1 software (GraphPad Inc). For the calculation of the affinity ratio of DA in the presence of the allosteric modulators, data were fitted according to the equations reported by Lazareno and Birdsall.[44]

T5 sequence (P21728 whole entry): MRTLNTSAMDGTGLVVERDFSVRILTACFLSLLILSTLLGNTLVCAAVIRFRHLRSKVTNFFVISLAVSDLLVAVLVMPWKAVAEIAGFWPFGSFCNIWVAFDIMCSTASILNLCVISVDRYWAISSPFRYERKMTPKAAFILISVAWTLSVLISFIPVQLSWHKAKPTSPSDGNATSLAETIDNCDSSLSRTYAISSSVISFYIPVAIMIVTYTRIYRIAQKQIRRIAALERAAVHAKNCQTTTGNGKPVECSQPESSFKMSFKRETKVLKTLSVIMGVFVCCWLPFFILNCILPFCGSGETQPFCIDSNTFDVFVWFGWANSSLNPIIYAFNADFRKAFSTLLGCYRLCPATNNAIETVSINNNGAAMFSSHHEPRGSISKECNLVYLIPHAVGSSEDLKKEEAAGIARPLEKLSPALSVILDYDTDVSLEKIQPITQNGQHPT
T3 sequence (P10635 whole entry): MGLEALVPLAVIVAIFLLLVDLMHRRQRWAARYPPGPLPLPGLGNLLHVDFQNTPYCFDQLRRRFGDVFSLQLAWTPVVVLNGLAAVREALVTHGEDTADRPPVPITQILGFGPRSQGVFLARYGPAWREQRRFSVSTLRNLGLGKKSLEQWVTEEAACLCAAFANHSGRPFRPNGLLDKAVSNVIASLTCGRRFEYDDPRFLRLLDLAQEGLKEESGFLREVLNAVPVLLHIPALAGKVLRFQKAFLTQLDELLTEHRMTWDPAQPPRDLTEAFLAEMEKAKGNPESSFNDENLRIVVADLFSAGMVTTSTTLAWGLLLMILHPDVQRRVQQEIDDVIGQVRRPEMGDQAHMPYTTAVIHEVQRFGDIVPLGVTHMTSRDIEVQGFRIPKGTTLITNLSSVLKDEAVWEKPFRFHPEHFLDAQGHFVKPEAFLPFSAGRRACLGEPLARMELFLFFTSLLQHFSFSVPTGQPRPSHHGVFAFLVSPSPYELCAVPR
T2 sequence (P35462 whole entry): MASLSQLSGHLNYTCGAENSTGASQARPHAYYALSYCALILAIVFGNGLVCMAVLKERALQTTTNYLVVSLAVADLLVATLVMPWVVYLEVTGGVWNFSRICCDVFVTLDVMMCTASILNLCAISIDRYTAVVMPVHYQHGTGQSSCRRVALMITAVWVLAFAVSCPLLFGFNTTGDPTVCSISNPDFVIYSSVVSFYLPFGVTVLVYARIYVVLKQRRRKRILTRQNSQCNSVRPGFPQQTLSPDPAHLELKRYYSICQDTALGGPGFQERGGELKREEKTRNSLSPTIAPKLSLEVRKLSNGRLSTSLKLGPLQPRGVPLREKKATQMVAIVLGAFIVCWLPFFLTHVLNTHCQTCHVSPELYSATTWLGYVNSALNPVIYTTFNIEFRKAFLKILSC
T4 sequence (Q61616 whole entry): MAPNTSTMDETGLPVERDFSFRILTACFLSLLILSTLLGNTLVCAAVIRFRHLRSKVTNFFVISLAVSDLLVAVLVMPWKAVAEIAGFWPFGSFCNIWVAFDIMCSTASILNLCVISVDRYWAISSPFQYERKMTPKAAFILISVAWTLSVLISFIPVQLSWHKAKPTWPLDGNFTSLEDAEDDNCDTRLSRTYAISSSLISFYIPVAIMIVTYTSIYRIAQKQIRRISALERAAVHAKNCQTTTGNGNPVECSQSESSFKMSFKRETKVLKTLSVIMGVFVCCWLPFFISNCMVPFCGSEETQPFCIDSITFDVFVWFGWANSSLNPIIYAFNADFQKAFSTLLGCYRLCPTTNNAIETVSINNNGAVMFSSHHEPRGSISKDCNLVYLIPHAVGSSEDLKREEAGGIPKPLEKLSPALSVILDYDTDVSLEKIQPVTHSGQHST
T6 sequence (P21728 whole entry): as the sequence (P21728 whole entry) above
T1 sequence (P14416 whole entry): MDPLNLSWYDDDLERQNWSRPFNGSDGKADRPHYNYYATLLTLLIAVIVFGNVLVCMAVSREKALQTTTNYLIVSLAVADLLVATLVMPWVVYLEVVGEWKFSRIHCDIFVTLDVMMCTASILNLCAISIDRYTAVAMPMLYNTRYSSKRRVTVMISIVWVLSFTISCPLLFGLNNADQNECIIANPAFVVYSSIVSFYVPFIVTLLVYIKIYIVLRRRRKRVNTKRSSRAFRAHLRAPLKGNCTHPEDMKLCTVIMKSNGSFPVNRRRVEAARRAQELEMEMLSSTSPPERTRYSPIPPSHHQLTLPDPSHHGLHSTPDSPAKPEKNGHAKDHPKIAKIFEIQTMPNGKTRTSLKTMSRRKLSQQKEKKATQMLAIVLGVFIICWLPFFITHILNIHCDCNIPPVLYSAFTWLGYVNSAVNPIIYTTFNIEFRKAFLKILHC

On to `O=Cc1ccc(-c2ccccc2OCF)cc1` [Compound 3, 2′-(Fluoromethoxy)[1,1′-biphenyl]-4-carbaldehyde], for which the “enhancement of DA Emax at human D2 receptor” value at human D2R is “did not enhance DA Emax”. The “enhancement of DA Emax at human D3 receptor” value at human D3R is “did not enhance DA Emax”. On CYP2D6 (Table S1, concentration not given), the “CYP2D6 (%)” value was “inactive”. In addition, the “potentiation of DA effect in mouse D1R” value at mouse D1R is “concentration-dependent potentiation of DA effect”. In addition, on human D1R, the “potentiation of DA effect at different fixed concentrations” value was “concentration-dependent potentiation of DA effect” and the “cAMP response in the absence of DA (agonist activity)” value is “No cAMP response”. Also, the “displacement of the radioligand [3H]SCH-23390” value at human dopamine D1R (at 10 μM) was determined as 12%.

Regarding `CS(=N)(=O)c1ccc(-c2ccccc2OCF)cc1` (stereo not shown) [Compound 26, 2-(Fluoromethoxy)-4′-(S-methanesulfonimidoyl)-1,1′-biphenyl], the “enhancement of DA Emax at human D2 receptor” value at human D2R is “subtype selectivity”. For the same compound, the “enhancement of DA Emax at human D3 receptor” value on human D3R was “subtype selectivity”. Moreover, the “CYP2D6 (%)” value on CYP2D6 (percentage of inhibition at 10 μM) is 3% and 3 ± 1%. The “potentiation of DA effect in mouse D1R” value at mouse D1R is “PAM behavior was also observed”. Besides, on human D1R (10 μM for 10 min then washing with assay buffer), the “reversibility of the potentiation” value is “reversible effect”. Also, at human D1R, the “potentiation of DA effect at different fixed concentrations” value is “potentiation of the DA Emax in a concentration-dependent manner” and the “cAMP response in the absence of DA (agonist activity)” value is listed as “no cAMP response”. In addition, the receptor desensitization result on human D1R (preincubation for 1 h with 10 μM compound) was “does not induce receptor desensitization”. Further, the “affinity ratio of [3H]SCH-23390” value on human dopamine D1R (in the presence of 4 μM DA) was “concentration-dependent increase of the affinity ratio values”.
